Measured values reported in ChEMBL document CHEMBL1134061, “Synthesis and biological evaluations of condensed pyridine and condensed pyrimidine-based HMG-CoA reductase inhibitors” (Bioorg Med Chem Lett, 2001).
pIC50: −log10 of the molar value.

What was measured:
[1] = molecular target: T1, 3-hydroxy-3-methylglutaryl-coenzyme A reductase (Rattus norvegicus) (UniProt P51639); test: In vivo hepatic cholesterol synthesis inhibitory activity in male Sprague-Dawley rat after oral administration at a concentration of 2.0 mg/kg; assay type: functional, organism-based; set-up: dose 2 mg/kg
T1 sequence (whole entry): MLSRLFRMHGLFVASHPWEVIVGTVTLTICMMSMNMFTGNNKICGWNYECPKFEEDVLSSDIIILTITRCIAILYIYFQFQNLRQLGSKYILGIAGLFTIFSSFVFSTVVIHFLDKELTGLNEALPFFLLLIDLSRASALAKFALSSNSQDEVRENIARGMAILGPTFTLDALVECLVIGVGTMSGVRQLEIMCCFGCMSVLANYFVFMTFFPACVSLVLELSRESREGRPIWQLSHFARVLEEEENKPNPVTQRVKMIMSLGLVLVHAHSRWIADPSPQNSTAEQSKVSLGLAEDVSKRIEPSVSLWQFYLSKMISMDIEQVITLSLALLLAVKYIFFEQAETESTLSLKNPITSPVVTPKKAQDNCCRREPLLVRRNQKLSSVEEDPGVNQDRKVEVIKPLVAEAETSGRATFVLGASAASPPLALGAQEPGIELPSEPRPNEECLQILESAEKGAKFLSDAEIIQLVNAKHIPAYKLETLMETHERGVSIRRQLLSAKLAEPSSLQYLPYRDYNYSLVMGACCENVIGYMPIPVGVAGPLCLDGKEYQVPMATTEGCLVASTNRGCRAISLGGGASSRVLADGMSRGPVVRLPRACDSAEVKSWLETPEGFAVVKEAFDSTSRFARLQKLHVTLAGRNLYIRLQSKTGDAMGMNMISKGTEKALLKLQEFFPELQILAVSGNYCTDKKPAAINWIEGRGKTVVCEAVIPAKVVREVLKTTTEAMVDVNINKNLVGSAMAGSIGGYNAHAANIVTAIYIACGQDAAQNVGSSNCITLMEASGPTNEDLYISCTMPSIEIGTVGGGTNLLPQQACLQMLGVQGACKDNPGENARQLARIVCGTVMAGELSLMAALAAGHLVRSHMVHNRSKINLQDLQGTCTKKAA

[2] = molecular target: T2, 3-hydroxy-3-methylglutaryl-coenzyme A reductase (Homo sapiens) (UniProt P04035); test: In vitro HMG-CoA reductase inhibitory activity required to inhibit cellular steroidgenesis in Hep G2 cells (human hepatoma cell line) with pravastatin as reference compound; assay type: cell-based; conditions: HepG2
T2 sequence (whole entry): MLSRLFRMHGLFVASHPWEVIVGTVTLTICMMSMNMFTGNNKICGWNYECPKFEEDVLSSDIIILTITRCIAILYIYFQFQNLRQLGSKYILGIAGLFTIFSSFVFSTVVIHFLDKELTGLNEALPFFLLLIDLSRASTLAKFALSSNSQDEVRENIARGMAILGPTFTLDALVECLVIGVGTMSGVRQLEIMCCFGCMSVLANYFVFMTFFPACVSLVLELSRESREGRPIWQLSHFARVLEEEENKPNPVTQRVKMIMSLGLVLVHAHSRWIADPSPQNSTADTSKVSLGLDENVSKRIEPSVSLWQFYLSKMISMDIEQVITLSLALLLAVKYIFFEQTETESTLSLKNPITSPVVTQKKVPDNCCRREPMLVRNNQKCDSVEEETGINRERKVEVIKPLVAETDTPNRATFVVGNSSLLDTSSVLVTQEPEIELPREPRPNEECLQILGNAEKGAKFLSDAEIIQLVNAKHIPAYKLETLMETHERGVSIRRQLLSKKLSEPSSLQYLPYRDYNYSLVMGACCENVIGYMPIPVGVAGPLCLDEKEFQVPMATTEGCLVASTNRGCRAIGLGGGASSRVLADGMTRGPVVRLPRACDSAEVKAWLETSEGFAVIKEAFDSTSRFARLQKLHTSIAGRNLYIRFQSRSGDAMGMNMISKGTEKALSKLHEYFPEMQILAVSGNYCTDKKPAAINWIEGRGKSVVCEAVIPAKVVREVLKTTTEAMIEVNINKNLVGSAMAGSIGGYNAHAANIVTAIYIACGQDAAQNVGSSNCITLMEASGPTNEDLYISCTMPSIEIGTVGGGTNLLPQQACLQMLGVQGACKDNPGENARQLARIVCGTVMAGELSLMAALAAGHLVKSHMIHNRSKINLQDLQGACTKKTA

[3] = molecular target: T1, 3-hydroxy-3-methylglutaryl-coenzyme A reductase (Rattus norvegicus); test: In vitro rat HMG-CoA reductase inhibitory activity required to inhibit sterol synthesis in cell free system with pravastatin as reference compound
[4] = molecular target: T1, 3-hydroxy-3-methylglutaryl-coenzyme A reductase (Rattus norvegicus); test: In vivo hepatic cholesterol synthesis inhibitory activity in male Sprague-Dawley rat after oral administration at a concentration of 0.2 mg/kg; assay type: functional, organism-based; set-up: dose 0.2 mg/kg
[5] = molecular target: T3, 3-hydroxy-3-methylglutaryl-coenzyme A reductase (Rattus norvegicus, UniProt P51639); test: In vitro HMG-CoA reductase inhibitory activity to inhibit sterol synthesis in cell free system in rat
T3 sequence (P51639 whole entry): T1 sequence (whole entry)

| SMILES | inhibition [1] [%] | Relative potency [2] | Relative potency [3] | inhibition [4] [%] | pIC50 [5] |
| --- | --- | --- | --- | --- | --- |
| O=C(O)C[C@H](O)C[C@H](O)/C=C/c1c(C2CC2)nc2sccc2c1-c1ccc(F)cc1 | 70.6 | 60 | 229 | 38.1 | – |
| Cc1cc2nc(C3CC3)c(/C=C/[C@@H](O)C[C@@H](O)CC(=O)O)c(-c3ccc(F)cc3)n2n1 | 6.5 | 2 | 24 | – | – |
| CCc1c(C)sc2nc(C(C)C)c(/C=C/[C@@H](O)C[C@@H](O)CC(=O)O)c(-c3ccc(F)cc3)c12 | 20.8 | 51 | 35 | 7.9 | – |
| Cc1nn(Cc2ccccc2)c2nc(C(C)C)c(/C=C/[C@@H](O)C[C@@H](O)CC(=O)O)c(-c3ccc(F)cc3)c12 | 45.1 | 17 | 63 | 16.4 | – |
| Cc1cc2nc(C(C)C)c(/C=C/[C@@H](O)C[C@@H](O)CC(=O)O)c(-c3ccc(F)cc3)n2n1 | – | 3 | 27 | -6.1 | – |
| CC(C)c1nc2onc(-c3ccccc3)c2c(-c2ccc(F)cc2)c1/C=C/[C@@H](O)C[C@@H](O)CC(=O)O | 52.3 | 1 | 83 | 33.7 | – |
| CC(C)c1nc2c(c(C3CC3)nn2C)c(-c2ccc(F)cc2)c1/C=C/[C@@H](O)C[C@@H](O)CC(=O)O | 71.3 | 1 | 42 | 42.9 | – |
| CC(C)c1nc2cc(-c3ccccc3)nn2c(-c2ccc(F)cc2)c1/C=C/[C@@H](O)C[C@@H](O)CC(=O)O | 24.1 | 3 | 12 | -1.4 | – |
| Cc1nn(C(C)(C)C)c2nc(C3CC3)c(/C=C/[C@@H](O)C[C@@H](O)CC(=O)O)c(-c3ccc(F)cc3)c12 | 72.2 | 11 | 168 | 4.5 | – |
| CC(C)c1cc2nc(C3CC3)c(/C=C/[C@@H](O)C[C@@H](O)CC(=O)O)c(-c3ccc(F)cc3)n2n1 | – | 1 | 6 | 21.8 | – |
| Cc1nn(C)c2nc(C3CC3)c(/C=C/[C@@H](O)C[C@@H](O)CC(=O)O)c(-c3ccc(F)cc3)c12 | 74.3 | 118 | 228 | 35.5 | – |
| CC[C@H](C)C(=O)O[C@H]1C[C@H](O)C=C2C=C[C@H](C)[C@H](CC[C@@H](O)C[C@@H](O)CC(=O)O)[C@H]21 [PRAVASTATIN SODIUM] | 27.8 | – | – | 35.4 | 8.38 |
| CC(C)c1nc2c(c(-c3ccccc3)nn2C)c(-c2ccc(F)cc2)c1/C=C/[C@@H](O)C[C@@H](O)CC(=O)O | 71.1 | 6 | 21 | 37 | – |
| Cc1nn(-c2ccccc2)c2nc(C(C)C)c(/C=C/[C@@H](O)C[C@@H](O)CC(=O)O)c(-c3ccc(F)cc3)c12 | 19.9 | 1 | 264 | 3.3 | – |
| Cc1nn(C)c2nc(C(C)C)c(/C=C/[C@@H](O)C[C@@H](O)CC(=O)O)c(-c3ccc(F)cc3)c12 | 48.1 | 15 | 71 | 41.1 | – |
| Cc1nn(C(C)(C)C)c2nc(C(C)C)c(/C=C/[C@@H](O)C[C@@H](O)CC(=O)O)c(-c3ccc(F)cc3)c12 | 86 | 31 | 100 | 51.8 | – |
| Cn1nc(-c2ccccc2)c2c(-c3ccc(F)cc3)c(/C=C/[C@@H](O)C[C@@H](O)CC(=O)O)c(C3CC3)nc21 | 11.5 | 14 | 300 | – | – |
| COc1ccc(-n2nc(C)c3c(-c4ccc(F)cc4)c(/C=C/[C@@H](O)C[C@@H](O)CC(=O)O)c(C(C)C)nc32)cc1 | 48.7 | 149 | 154 | – | – |
